According to PMC4821887, “Identification of chemicals that mimic transcriptional changes associated with autism, brain aging and neurodegeneration” (Nature Communications, 2016):

System: mouse cortical cultures
Experiment: RNA-seq differential expression (DESeq) against matched vehicle
Assay type: cell-based
Set-up: key to MeanFenamidone Bcl11b / MeanFenamidone Slc12a4 / MeanFenamidone Abca1 / MeanFenamidone Hmox1 / MeanFenamidone Il1rap / MeanFenamidone Cyba / MeanFenamidone Narf / MeanFenamidone Bnip3 / MeanFenamidone Amotl2 / MeanFenamidone Gad2 / MeanFenamidone Vsnl1 / MeanFenamidone Fam178a: DESeq mean of counts over RefSeq exons
Experimental: Figure 4 Cluster 2 chemicals alter expression of a common set of genes. […] RNA-seq was performed in quadruplicate after treating cortical cultures with fenamidone (10 μM) or pyraclostrobin (0.1 μM) for 24 h (n=3 biological replicates) and compared with matched vehicle controls using DESeq to detect differentially expressed genes, listed in Supplementary Data 4.
Cultures were treated with the non-cytotoxic dose of each chemical, by exchanging half of the original medium with chemicals at 2 × concentration in prewarmed feeding medium, on DIV 7 for 24 h in 12-well plates at a density of 5 × 10^5 cells per well. RNA was isolated using RNeasy plus mini kit (Cat. #74134, Qiagen). […]. Samples were further assessed for quality using either an Agilent Bioanalyzer 2100 or TapeStation 2200 to obtain a RIN. RIN values exceeding 7 were used for sequencing. RNA samples were used to generate and barcode complementary DNA libraries using the TruSeq RNA Library Preparation Kit at the UNC High Throughput Sequencing Facility. Pools of 24 multiplexed samples were sequenced per lane on an Illumina HiSeq 2500 using 50-bp paired-end reads.
RNA-seq reads were filtered using TagDust and aligned to the reference mouse genome (mm9) with TopHat using default parameters. Reads aligning to ribosomal RNA genes were removed. Transcript abundance was estimated by computing Reads per kilobase per million mapped reads (RPKM) using RefSeq gene models aggregated by gene symbol. For differential expression analyses, raw counts over RefSeq exons were used, and then were compared across samples using DESeq[62].

CSC1=N[C@@](C)(c2ccccc2)C(=O)N1Nc1ccccc1 [fenamidone]
MeanFenamidone (gene Dclk1): 2436.98 | log2FoldChange (gene Dclk1): -1.095 | MeanFenamidone (gene Dcxr): 235.507 | log2FoldChange (gene Dcxr): 3.058 | MeanFenamidone (gene Diras1): 170.873 | log2FoldChange (gene Diras1): -1.25 | MeanFenamidone (gene Dlg2): 695.294 | log2FoldChange (gene Dlg2): -1.3121 | MeanFenamidone Dlx1as (gene Dlx1as, DESeq mean, 4 reps): 22.8822 | log2FoldChange Dlx1as (gene Dlx1as, vs vehicle, 4 reps): -2.397 | MeanFenamidone (gene Dnaja1): 313.407 | log2FoldChange (gene Dnaja1): -1.061 | MeanFenamidone Dnm3 (gene Dnm3, DESeq mean, 4 reps): 187.1 | log2FoldChange Dnm3 (gene Dnm3, vs vehicle, 4 reps): -1.706 | MeanFenamidone Dpp10 (gene Dpp10, DESeq mean, 4 reps): 62.8613 | log2FoldChange Dpp10 (gene Dpp10, vs vehicle, 4 reps): -1.776 | MeanFenamidone Dzank1 (gene Dzank1, DESeq mean, 4 reps): 112.179 | log2FoldChange Dzank1 (gene Dzank1, vs vehicle, 4 reps): -1.428 | MeanFenamidone Eda2r (gene Eda2r, DESeq mean, 4 reps): 436.944 | log2FoldChange Eda2r (gene Eda2r, vs vehicle, 4 reps): 1.783 | MeanFenamidone Efemp1 (gene Efemp1, DESeq mean, 4 reps): 94.4395 | log2FoldChange Efemp1 (gene Efemp1, vs vehicle, 4 reps): 2.414 | MeanFenamidone (gene Egfr): 148.93 | log2FoldChange (gene Egfr): 1.836 | MeanFenamidone Eif4ebp1 (gene Eif4ebp1, DESeq mean, 4 reps): 125.436 | log2FoldChange Eif4ebp1 (gene Eif4ebp1, vs vehicle, 4 reps): 2.511 | MeanFenamidone Elavl2 (gene Elavl2, DESeq mean, 4 reps): 207.006 | log2FoldChange Elavl2 (gene Elavl2, vs vehicle, 4 reps): -1.527 | MeanFenamidone Elovl1 (gene Elovl1, DESeq mean, 4 reps): 104.754 | log2FoldChange Elovl1 (gene Elovl1, vs vehicle, 4 reps): 2.586 | MeanFenamidone (gene Enox1): 25.4463 | log2FoldChange (gene Enox1): -1.757 | MeanFenamidone (gene Epas1): 154.593 | log2FoldChange (gene Epas1): 2.42 | MeanFenamidone Ephx1 (gene Ephx1, DESeq mean, 4 reps): 789.724 | log2FoldChange Ephx1 (gene Ephx1, vs vehicle, 4 reps): 1.959 | MeanFenamidone (gene Epm2aip1): 711.569 | log2FoldChange (gene Epm2aip1): -0.9776 | MeanFenamidone (gene Etfb): 102.831 | log2FoldChange (gene Etfb): 1.903 | MeanFenamidone (gene Evc): 45.1413 | log2FoldChange (gene Evc): 1.984 | MeanFenamidone F2r (gene F2r, DESeq mean, 4 reps): 1216.46 | log2FoldChange F2r (gene F2r, vs vehicle, 4 reps): 2.012 | MeanFenamidone F3 (gene F3, DESeq mean, 4 reps): 324.561 | log2FoldChange F3 (gene F3, vs vehicle, 4 reps): 2.464 | MeanFenamidone (gene Fam78b): 119.127 | log2FoldChange (gene Fam78b): -1.289 | MeanFenamidone Fam163b (gene Fam163b, DESeq mean, 4 reps): 135.664 | log2FoldChange Fam163b (gene Fam163b, vs vehicle, 4 reps): -1.491 | MeanFenamidone Fam178a (gene Fam178a, DESeq mean, 4 reps): 780.387 | log2FoldChange Fam178a (gene Fam178a, vs vehicle, 4 reps): 1.493 | MeanFenamidone Fat1 (gene Fat1, DESeq mean, 4 reps): 2188.76 | log2FoldChange Fat1 (gene Fat1, vs vehicle, 4 reps): 1.677 | MeanFenamidone Fbn1 (gene Fbn1, DESeq mean, 4 reps): 159.478 | log2FoldChange Fbn1 (gene Fbn1, vs vehicle, 4 reps): 2.303 | MeanFenamidone Fbxo9 (gene Fbxo9, DESeq mean, 4 reps): 32.2944 | log2FoldChange Fbxo9 (gene Fbxo9, vs vehicle, 4 reps): -2.181 | MeanFenamidone Fermt2 (gene Fermt2, DESeq mean, 4 reps): 437.255 | log2FoldChange Fermt2 (gene Fermt2, vs vehicle, 4 reps): 1.474 | MeanFenamidone (gene Fgf13): 224.473 | log2FoldChange (gene Fgf13): -1.202 | MeanFenamidone Fgfr3 (gene Fgfr3, DESeq mean, 4 reps): 309.362 | log2FoldChange Fgfr3 (gene Fgfr3, vs vehicle, 4 reps): 1.548 | MeanFenamidone Fkbp9 (gene Fkbp9, DESeq mean, 4 reps): 763.489 | log2FoldChange Fkbp9 (gene Fkbp9, vs vehicle, 4 reps): 1.78 | MeanFenamidone Flna (gene Flna, DESeq mean, 4 reps): 4335.97 | log2FoldChange Flna (gene Flna, vs vehicle, 4 reps): 1.783 | MeanFenamidone Flnb (gene Flnb, DESeq mean, 4 reps): 1183.24 | log2FoldChange Flnb (gene Flnb, vs vehicle, 4 reps): 2.364 | MeanFenamidone Flnc (gene Flnc, DESeq mean, 4 reps): 270.515 | log2FoldChange Flnc (gene Flnc, vs vehicle, 4 reps): 3.121 | MeanFenamidone Fn1 (gene Fn1, DESeq mean, 4 reps): 2242.75 | log2FoldChange Fn1 (gene Fn1, vs vehicle, 4 reps): 2.874 | MeanFenamidone (gene Fzd7): 201.665 | log2FoldChange (gene Fzd7): 1.705 | MeanFenamidone Gad1 (gene Gad1, DESeq mean, 4 reps): 102.047 | log2FoldChange Gad1 (gene Gad1, vs vehicle, 4 reps): -2.011 | MeanFenamidone Gad2 (gene Gad2, DESeq mean, 4 reps): 49.2241 | log2FoldChange Gad2 (gene Gad2, vs vehicle, 4 reps): -2.6503 | MeanFenamidone (gene Gas6): 1188.11 | log2FoldChange (gene Gas6): 1.393 | MeanFenamidone (gene Gas7): 704.19 | log2FoldChange (gene Gas7): -1.128 | MeanFenamidone Gdf15 (gene Gdf15, DESeq mean, 4 reps): 107.196 | log2FoldChange Gdf15 (gene Gdf15, vs vehicle, 4 reps): 3.431 | MeanFenamidone (gene Glis2): 157.775 | log2FoldChange (gene Glis2): 1.455 | MeanFenamidone Gls (gene Gls, DESeq mean, 4 reps): 297.391 | log2FoldChange Gls (gene Gls, vs vehicle, 4 reps): -1.569 | MeanFenamidone Gm5424 (gene Gm5424, DESeq mean, 4 reps): 1293.84 | log2FoldChange Gm5424 (gene Gm5424, vs vehicle, 4 reps): 2.267 | MeanFenamidone (gene Gng2): 1878.98 | log2FoldChange (gene Gng2): -1.047 | MeanFenamidone Gpnmb (gene Gpnmb, DESeq mean, 4 reps): 552.991 | log2FoldChange Gpnmb (gene Gpnmb, vs vehicle, 4 reps): 3.791 | MeanFenamidone (gene Gpr22): 61.8379 | log2FoldChange (gene Gpr22): -1.6935 | MeanFenamidone Gpr88 (gene Gpr88, DESeq mean, 4 reps): 81.4648 | log2FoldChange Gpr88 (gene Gpr88, vs vehicle, 4 reps): -2.268 | MeanFenamidone Gpx1 (gene Gpx1, DESeq mean, 4 reps): 550.81 | log2FoldChange Gpx1 (gene Gpx1, vs vehicle, 4 reps): 1.571 | MeanFenamidone Grik3 (gene Grik3, DESeq mean, 4 reps): 96.3695 | log2FoldChange Grik3 (gene Grik3, vs vehicle, 4 reps): -2.234 | MeanFenamidone (DESeq mean normalized counts) (gene Grin1os, Fenamidone, 4 reps, vs matched vehicle): 76.6399 | MeanFenamidone (gene Grm5): 468.182 | log2FoldChange (gene Grm5): -1.139 | MeanFenamidone Gss (gene Gss, DESeq mean, 4 reps): 95.0873 | log2FoldChange Gss (gene Gss, vs vehicle, 4 reps): 2.127 | MeanFenamidone Gstm1 (gene Gstm1, DESeq mean, 4 reps): 533.415 | log2FoldChange Gstm1 (gene Gstm1, vs vehicle, 4 reps): 2.03 | MeanFenamidone (gene Gtse1): 113.042 | log2FoldChange (gene Gtse1): 1.636 | MeanFenamidone Gxylt2 (gene Gxylt2, DESeq mean, 4 reps): 58.8169 | log2FoldChange Gxylt2 (gene Gxylt2, vs vehicle, 4 reps): 2.562 | MeanFenamidone Hbegf (gene Hbegf, DESeq mean, 4 reps): 726.667 | log2FoldChange Hbegf (gene Hbegf, vs vehicle, 4 reps): 2.744 | MeanFenamidone (gene Hivep2): 554.938 | log2FoldChange (gene Hivep2): -0.989 | MeanFenamidone Hmox1 (gene Hmox1, DESeq mean, 4 reps): 1318.42 | log2FoldChange Hmox1 (gene Hmox1, vs vehicle, 4 reps): 3.72 | MeanFenamidone Hspg2 (gene Hspg2, DESeq mean, 4 reps): 1082.79 | log2FoldChange Hspg2 (gene Hspg2, vs vehicle, 4 reps): 3.326 | MeanFenamidone Icam1 (gene Icam1, DESeq mean, 4 reps): 359.44 | log2FoldChange Icam1 (gene Icam1, vs vehicle, 4 reps): 2.082 | MeanFenamidone Igdcc4 (gene Igdcc4, DESeq mean, 4 reps): 745.33 | log2FoldChange Igdcc4 (gene Igdcc4, vs vehicle, 4 reps): 1.594 | MeanFenamidone Il1rap (gene Il1rap, DESeq mean, 4 reps): 123.358 | log2FoldChange Il1rap (gene Il1rap, vs vehicle, 4 reps): 1.873 | MeanFenamidone Inf2 (gene Inf2, DESeq mean, 4 reps): 157.523 | log2FoldChange Inf2 (gene Inf2, vs vehicle, 4 reps): 1.741 | MeanFenamidone (gene Irs1): 506.425 | log2FoldChange (gene Irs1): 1.154 | MeanFenamidone Itga3 (gene Itga3, DESeq mean, 4 reps): 452.545 | log2FoldChange Itga3 (gene Itga3, vs vehicle, 4 reps): 2.403 | MeanFenamidone Itga5 (gene Itga5, DESeq mean, 4 reps): 86.8768 | log2FoldChange Itga5 (gene Itga5, vs vehicle, 4 reps): 3.801 | MeanFenamidone Itga6 (gene Itga6, DESeq mean, 4 reps): 547.54 | log2FoldChange Itga6 (gene Itga6, vs vehicle, 4 reps): 1.506 | MeanFenamidone Itga7 (gene Itga7, DESeq mean, 4 reps): 82.7144 | log2FoldChange Itga7 (gene Itga7, vs vehicle, 4 reps): 2.577 | MeanFenamidone Itgav (gene Itgav, DESeq mean, 4 reps): 659.409 | log2FoldChange Itgav (gene Itgav, vs vehicle, 4 reps): 1.938 | MeanFenamidone Itgb1 (gene Itgb1, DESeq mean, 4 reps): 2073.15 | log2FoldChange Itgb1 (gene Itgb1, vs vehicle, 4 reps): 1.665 | MeanFenamidone (gene Kcnc2): 16.7005 | log2FoldChange (gene Kcnc2): -1.836 | MeanFenamidone Kcnh3 (gene Kcnh3, DESeq mean, 4 reps): 28.6602 | log2FoldChange Kcnh3 (gene Kcnh3, vs vehicle, 4 reps): -2.172 | MeanFenamidone Kcnv1 (gene Kcnv1, DESeq mean, 4 reps): 52.8142 | log2FoldChange Kcnv1 (gene Kcnv1, vs vehicle, 4 reps): -2.08 | MeanFenamidone (gene Kctd12): 687.782 | log2FoldChange (gene Kctd12): -1.125 | MeanFenamidone Kdelc2 (gene Kdelc2, DESeq mean, 4 reps): 146.187 | log2FoldChange Kdelc2 (gene Kdelc2, vs vehicle, 4 reps): 1.909 | MeanFenamidone Kif1c (gene Kif1c, DESeq mean, 4 reps): 782.878 | log2FoldChange Kif1c (gene Kif1c, vs vehicle, 4 reps): 2.167
